US20170172955A1, “Treatment of Mixed Dyslipidemia” (priority 2015, published 2017)
Read-outs that look alike come from different tables or passages of the source.

How the values were obtained:
CYP1A2 = CYP1A2 (Homo sapiens, UniProt P05177); assay: biochemical
Method: (§1) Human livers, HLM141, HLM143, and HLM144 were selected from the University of Washington Human Liver Bank for this study. […] The actual concentrations used for each of the other probes are specified below. […] The seven isoforms and the metabolic pathway of each of the probes used to monitor specific isoform activity are listed below.
CYP1A2: The 6-hydroxylation of high concentrations (0.5 mM) of (R)-warfarin. The reaction is monitored by quantitative gas chromatographic/mass spectrometric (GC/MS) using 6-hydroxywarfarin-(d5-phenyl) as the internal standard.

CYP2D6 = CYP2D6 (Homo sapiens, UniProt P10635); assay: biochemical
Method: as §1
CYP2D6: The O-demethylation of dextromethorphan (5 μM). The reaction is monitored by high performance liquid chromatography (HPLC) using florescence detection.

primary rat hepatocytes = assay: Cholesterol and triglyceride synthesis ([14C]acetate) in primary rat hepatocyte cultures; type: cell-based; conditions: for % Change in Synthesis, Cholesterol ± SEM / % Change in Synthesis, Triglyceride ± SEM: relative to vehicle cells
Method: At end of labeling period, cells were washed with room temperature D-PBS, 2.0 mL per well and the reaction is stopped with 1.0 mL 0.75 N HCl. Cells were scraped and transferred to 15×45 mm glass vial (1 dram size). Wells were washed with 1.0 mL of methanol and added to scraped cells, followed by the addition of 2.0 mL of chloroform. Vials were capped and vortexed for 5 seconds and centrifuged in a Beckman GS 6KR centrifuge at 3,600 rpm for 15 minutes at room temperature to separate phases. The bottom chloroform phase was transferred to new 15×45 mm glass vial, dried down in a […] evaporator at 37° C. under nitrogen gas. Vials were cooled to room temperature and samples resuspended in 130 μL of n-heptane:chloroform, 4:1 by vortexing for 5 seconds. […] Plates were dried for 30 minutes in an 80° C. gravity convection oven, cooled to room temperature, and wrapped in SaranTM Wrap. Plates were exposed overnight to phosphorimager plates, scanned on Typhoon PhosporImager (Molecular Dynamics), and analyzed using Imagequant software (Molecular Dynamics).

CYP2D6, sequence (P10635 whole entry): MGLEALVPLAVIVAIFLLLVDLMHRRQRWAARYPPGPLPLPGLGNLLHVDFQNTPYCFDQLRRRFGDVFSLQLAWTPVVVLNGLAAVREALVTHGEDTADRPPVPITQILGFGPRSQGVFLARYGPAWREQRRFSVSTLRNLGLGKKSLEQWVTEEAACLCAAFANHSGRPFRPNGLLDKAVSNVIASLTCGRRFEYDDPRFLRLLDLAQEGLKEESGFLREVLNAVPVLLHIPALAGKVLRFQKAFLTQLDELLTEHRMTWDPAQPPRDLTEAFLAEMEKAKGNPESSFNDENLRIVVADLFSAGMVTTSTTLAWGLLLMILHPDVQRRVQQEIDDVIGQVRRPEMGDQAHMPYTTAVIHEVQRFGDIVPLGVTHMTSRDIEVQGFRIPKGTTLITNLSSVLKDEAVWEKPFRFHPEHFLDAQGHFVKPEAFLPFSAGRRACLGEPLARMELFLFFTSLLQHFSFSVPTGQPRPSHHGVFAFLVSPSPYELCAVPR
CYP1A2, sequence (P05177 whole entry, canonical isoform): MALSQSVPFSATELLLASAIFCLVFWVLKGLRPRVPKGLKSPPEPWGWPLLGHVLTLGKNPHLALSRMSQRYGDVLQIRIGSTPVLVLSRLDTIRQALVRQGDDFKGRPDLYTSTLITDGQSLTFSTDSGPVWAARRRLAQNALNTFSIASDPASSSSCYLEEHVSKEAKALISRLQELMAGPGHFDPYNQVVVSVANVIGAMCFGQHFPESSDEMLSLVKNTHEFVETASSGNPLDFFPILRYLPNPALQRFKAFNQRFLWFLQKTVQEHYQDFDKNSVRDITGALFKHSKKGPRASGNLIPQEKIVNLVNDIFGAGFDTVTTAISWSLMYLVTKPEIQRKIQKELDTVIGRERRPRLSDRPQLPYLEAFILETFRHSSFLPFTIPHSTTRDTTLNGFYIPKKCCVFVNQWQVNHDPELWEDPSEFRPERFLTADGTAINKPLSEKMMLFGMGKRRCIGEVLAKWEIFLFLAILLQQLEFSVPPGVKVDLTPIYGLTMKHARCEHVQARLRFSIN

IC50 (CYP1A2): > 1.5 mM | IC50 (CYP1A2; human, microsomes): > 1.5 mM | IC50 (CYP2D6): > 1.5 mM | IC50 (CYP2D6; human, microsomes): > 1.5 mM
Compound: CC(C)(CCCCOCCCCC(C)(C)C(=O)O)C(=O)O [Gemcabene, 6,6′-oxybis(2,2-dimethylhexanoic acid)]
decrease of cholesterol synthesis (± SEM) (primary rat hepatocytes; 10 μM): 61.5±1.8% | reduction of triglyceride synthesis (primary rat hepatocytes; 10 μM): 8.9±4.5% | % Change in Synthesis, Cholesterol ± SEM (primary rat hepatocytes; 10 μM): −61.5 ± 1.8% | % Change in Synthesis, Triglyceride ± SEM (primary rat hepatocytes; 10 μM): −8.9 ± 45%^ns | decrease of cholesterol synthesis (± SEM) (primary rat hepatocytes; 30 μM): 90.0±0.8% | reduction of triglyceride synthesis (primary rat hepatocytes; 30 μM): 72.1±2.9% | % Change in Synthesis, Cholesterol ± SEM (primary rat hepatocytes; 30 μM): −90.0 ± 0.8% | % Change in Synthesis, Triglyceride ± SEM (primary rat hepatocytes; 30 μM): −72.1 ± 2.9%
